Assay results reported in patent publication US20130131321A1, “LIGANDS FOR ANTIBODY AND Fc-FUSION PROTEIN PURIFICATION BY AFFINITY CHROMATOGRAPHY” (GRAFFINITY PHARMACEUTICALS GMBH, priority 2010, published 2013).

Tests used:
Bevacizumab Fc fragment [1] = test: SPR screening of chemical microarrays, Bevacizumab Fc fragment; type: binding, humanized; details: chemical microarray, immobilized ligand
Source text: (§1) Graffinity has developed high density chemical microarrays comprising thousands of small molecules immobilized onto gold chips. The arrays are constructed using maleimide-thiol coupling chemistry in combination with high density pintool spotting. For the construction, glass plates are microstructured by photolithographical methods in order to define up to 9,216 sensor fields per array. A subsequently applied gold coating provides the basis for the SPR effect and enables the formation of a binary, mixed self assembled monolayer (SAM) of two different thiols. […]
(§2) Surface plasmons are collective oscillations of electrons at a metal surface which can be resonantly excited by polarized light of appropriate wavelength and incidence angle. […] Processes which alter the local refractive index in close proximity to the metal surface (such as antibody binding to the immobilized ligands) can therefore be monitored sensitively. […] While scanning over a range of wavelengths covering the SPR resonance conditions, reflection images are recorded stepwise. […]
(§3) The experimental results of the microarray screening campaigns were analyzed by manual hit selection using in-house developed software routines as well as by an in-depth data analysis by commercially available data mining tools. […]

rabbit poly-IgGs = test: Microtiter plate chromatography of resins, rabbit poly-IgG; type: binding
Method: (§4) Resins were assessed in packed mode by microtiter plate chromatography. For each column, approximately 30 μl of resin were transferred to a 384-well filter plate and sealed with appropriate top frits.
(§5) Columns were equilibrated with 6.7 column volumes (cv) of phosphate buffered saline (0.15 M NaCl, 20 mM sodium phosphate, pH 7.3; PBS) prior to injection. Either 3.3 cv of whole IgGs dissolved at 0.75 mg ml^−1, Fab or Fc fragments dissolved at 0.25 mg ml^−1 (all three in PBS) or host cell proteins (HCP) were injected onto columns. Antibody fragments of Bevacizumab (Fab and Fc) were prepared by cleavage of whole IgG with papain protease (3) according to the protocol of the manufacturer. […] Volumes transferred were spun through columns at 50 g for 1-2 min. During injection of samples, acceleration was reduced to 10 g and centrifugation time increased to 5-10 min. Effluent fractions were collected in 384-well plates and concentrations of protein analyzed by Bradford assay. Protein masses mi, mft and me (see below) were calculated as the product of fraction volume and measured protein concentration.
(§6) The fraction of ‘bound’ protein was calculated as the difference between the total mass of protein injected mi and the mass of protein detected in the flowthrough mft, divided by the total mass of protein injected.
The ‘yield’ of protein was calculated as the mass of protein eluted me, divided by the mass of protein injected mi.
(§7) the fraction of ‘bound’ protein and the ‘yield’ of protein were calculated for each resin based on data for whole IgG-antibodies. In the case of Bevacizumab fragments and host cell proteins, only the fraction of ‘bound’ protein is given. Selectivity of resins was calculated from data for Bevacizumab Whole IgG and host cell proteins. Due to limited experimental precision, selectivity was truncated beyond values of 10.

Tocilizumab = test: Microtiter plate chromatography of resins, Tocilizumab (bound, yield); type: binding, humanized
Palivizumab [2] = test: SPR screening of chemical microarrays, Palivizumab; type: binding, humanized; details: chemical microarray, immobilized ligand
Source text: as §1, §2, §3

Bevacizumab Fc fragment [3] = test: Microtiter plate chromatography of resins, Bevacizumab Fc fragment (bound); type: binding, humanized
Method: as §4, §5, §6, §7

Bevacizumab Fab fragment [4] = test: SPR screening of chemical microarrays, Bevacizumab Fab fragment; type: binding, humanized; details: chemical microarray, immobilized ligand
Source text: as §1, §2, §3

Anti RhD IgG = test: SPR screening of chemical microarrays, Anti RhD IgG; type: binding; details: chemical microarray, immobilized ligand
Source text: as §1, §2, §3

Bevacizumab Fab fragment [5] = test: Microtiter plate chromatography of resins, Bevacizumab Fab fragment (bound); type: binding, humanized
Method: as §4, §5, §6, §7

full length Bevacizumab = test: SPR screening of chemical microarrays, full length Bevacizumab; type: binding, humanized; details: chemical microarray, immobilized ligand
Source text: as §1, §2, §3

host cell proteins (HCP) = test: Microtiter plate chromatography of resins, host cell proteins (bound); type: binding, CHO; details: host cell proteins
Palivizumab [6] = test: Microtiter plate chromatography of resins, Palivizumab (bound, yield); type: binding, humanized
Bevacizumab = target: T1, Bevacizumab (Homo sapiens, UniProt P01857); test: Langmuir isotherms by batch adsorption; type: binding, humanized; details: Bevacizumab in PBS pH 7.3, 25° C., at least 3 h
T1 construct: fused on or other part: humanised anti-VEGF-A VH domain N-terminal of the gamma-1 constant region (engineered, no UniProt entry)
Method: Experiments were performed with Bevacizumab as antibody. Parameters of Langmuir isotherms for purified antibody were determined by batch adsorption experiments in 96-well microtiter plates. In each well, 10 μl of sorbent slurry (50% v/v) were mixed with 100 μl of protein solution. Initial concentrations varied from 0.05-5 mg ml^−1 in phosphate-buffered saline (0.15 M NaCl, 20 mM phosphate buffer, pH 7.3; PBS). Reactions were agitated vigorously at 25° C. for at least 3 h. Afterwards, antibody concentration in the supernatents were measured by Bradford assay.
Parameters of Langmuir isotherms, i.e. dissociation constants Kd and maximum capacities qm, were determined from the measured concentrations in supernatants. Parameters were estimated by numerical fitting of the model equation derived by Chase (4).

For `COc1ccc(NC(=O)c2cc(-c3ccco3)n(C)n2)cc1C(=O)NCCCN` [Ligand L1, 5-[5-(2-Furyl)-1-methylpyrazol-3-yl]carboxamido-2-methoxybenzoic acid N-(3-aminopropyl)amide], the “SPR binding to Bevacizumab Fc fragment” value (Bevacizumab Fc fragment [1]) was “distinct binding”, the “r-poly-IgG Bound (%)” value (rabbit poly-IgGs) was 100% and the “r-poly-IgG Yield (%)” value (rabbit poly-IgGs) was 100%. For the same compound, the “binding of rabbit poly-IgGs” value (rabbit poly-IgGs; microtiter plate chromatography, PBS) was “efficient binding”, the “Tocilizumab Bound (%)” value (Tocilizumab) was 100% and the “Tocilizumab Yield (%)” value (Tocilizumab) was 97%. The “SPR binding to full length Palivizumab” value (Palivizumab [2]) was “clearly bound”, the “Bevacizumab Fc Bound (%)” value (Bevacizumab Fc fragment [3]; Bevacizumab Fc fragment) was 100% and the “binding of Bevacizumab Fc-fragment” value (Bevacizumab Fc fragment [3]; Fc 0.25 mg ml^-1 in PBS) was “bound the Fc-fragment”. The “SPR binding to Bevacizumab Fab fragment” value (Bevacizumab Fab fragment [4]) was “only minor binding”, the “SPR binding to full length Anti RhD IgG” value (Anti RhD IgG) was “clearly bound” and the “Bevacizumab Fab Bound (%)” value (Bevacizumab Fab fragment [5]; Bevacizumab Fab fragment) was 18%. The “binding of Bevacizumab Fab-fragment” value (Bevacizumab Fab fragment [5]; Fab 0.25 mg ml^-1 in PBS) was “not the Fab-fragment”, the “SPR binding to full length Bevacizumab” value (full length Bevacizumab) was “distinct binding” and the “HCP Bound (%)” value (host cell proteins (HCP)) was 30%. For the same compound, the “Palivizumab Bound (%)” value (Palivizumab [6]) was 100%, the “Palivizumab Yield (%)” value (Palivizumab [6]) was 92% and the “qm (maximum capacity, Langmuir isotherm)” value (Bevacizumab) was 36 mg per ml resin.
